Measurements: US11298333B1, “Methods of reducing the risk of cardiovascular events in a subject” (Amarin Pharmaceuticals Ireland Limited, priority 2018, dated 2022)

Key:
[1] = REDUCE-IT: blood pressure, repeated-measurements analysis of change from baseline; type: in vivo, human; conditions: 4 g per day; ITT; mixed effects model; exploratory
Procedure: Blood pressure was measured using a standardized process: • Patient sat for […] with feet flat on the floor and measurement arm supported so that the midpoint of the manometer cuff was at heart level; and • Used a mercury sphygmomanometer or automatic blood pressure device with an appropriately sized cuff with the bladder centered over the brachial artery.
Blood pressure was recorded to the nearest 2 mmHg mark on the manometer or to the nearest whole number on an automatic device. A blood pressure reading was repeated 1 to 2 minutes later, and the second reading recorded to the nearest 2 mmHg mark.
It is contemplated that a number of factors contribute to the significant reduction in the cardiovascular risk. Without intending to be bound by any particular theory, one of the contributing factors might relate to the dose and formulation of the icosapent ethyl administered to the patients, in marked contrast to previous studies of omega-3 fatty acid studies. An additional contributing factor could relate to the patients' blood pressure. […] These differences appear to be modest, but it is contemplated, that they might contribute to the benefits of icosapent ethyl. […]

[2] = test system: statin-treated patients with a history of atherosclerosis or diabetes; test: REDUCE-IT Example 3: total (first and subsequent) ischemic events (negative binomial, Andersen-Gill, Wei-Lin-Weissfeld Li-Lagakos, joint frailty; reduced and full dataset); type: in vivo, human; set-up: Relative risk reduction in total (first and subsequent) ischemic events for the primary composite endpoint / First events reduced by / Second events reduced by / Third events reduced by / Fourth or more events reduced by: concentration or dose not given beside the values
Excerpt: The following study was a multi-center, placebo-controlled clinical trial the details of which are described above in Example 1, the REDUCE-IT design. […] The main outcomes were total primary composite endpoint events defined as cardiovascular death, nonfatal myocardial infarction, nonfatal stroke, coronary revascularization, or hospitalization for unstable angina and total key secondary composite endpoint events defined as cardiovascular death, nonfatal myocardial infarction, or nonfatal stroke. In the context of this study, total events refer to any first event as well as any subsequent event. Differences in total events were determined using other statistical models, including Andersen-Gill, Wei-Lin-Weisfeld (Li and Lagakos), both pre-specified, and a post hoc and joint-frailty analysis.
For the present prespecified analysis, the primary outcome was the total of first plus subsequent ischemic events consisting of the composite of cardiovascular death, nonfatal myocardial infarction, nonfatal stroke, coronary revascularization, or hospitalization for unstable angina. […] Exploratory analyses of the total of first and subsequent events were also performed for the key secondary composite endpoint.
Baseline characteristics were compared between treatment groups using the chi-squared test for categorical variables and the Wilcoxon rank sum test for continuous variables. There are several methods for analyzing first and subsequent (recurrent) event data. As a pre-specified statistical method, a negative binomial regression was used to calculate rates and rate ratios for total cardiovascular events, which accounts for the variability in each patient's risk of events. As pre-specified supportive analyses, the modified Wei-Lin-Weissfeld method (Li and Lagakos modification) was used to calculate hazard ratios (HRs) for the time to the first event, second event, or third event. An additional pre-specified analysis, the Andersen-Gill model using a Cox proportional-hazard with the counting-process formulation was performed to model the total events. In addition, in order to account for informative censoring due to cardiovascular death, the HR for total non-fatal events was calculated using a joint frailty model (See Rondeau V. Joint frailty models for recurring events and death using maximum penalized likelihood estimation: application on cancer events. Biostatistics. 2007; 8:708-21). The joint frailty model simultaneously estimates hazard functions for non-fatal and fatal CV events and takes into account the fact that patients who are prone to have nonfatal events have an elevated risk of a cardiovascular death. The application of the joint frailty model used a gamma distribution for the frailty term.
Statistical analyses using the full adjudicated endpoint events dataset without exclusions using this bundling approach were also determined.

[3] = Andersen-Gill (I), full dataset, adjusted for stratification factors, vs placebo
[4] = Andersen-Gill (I), full dataset, vs placebo
[5] = Andersen-Gill (I), reduced dataset, adjusted for stratification factors, vs placebo
[6] = Andersen-Gill (I), reduced dataset, vs placebo
[7] = Andersen-Gill (II), full dataset, adjusted for stratification factors, vs placebo
[8] = Andersen-Gill (II), full dataset, vs placebo
[9] = Andersen-Gill (II), reduced dataset, adjusted for stratification factors, vs placebo
[10] = Andersen-Gill (II), reduced dataset, vs placebo
[11] = Wei-Lin-Weissfeld model (Li and Lagakos)
[12] = modified WLW, full dataset, adjusted for stratification factors, vs placebo
[13] = modified WLW, full dataset, vs placebo
[14] = negative binomial, full dataset, adjusted for stratification factors, vs placebo
[15] = negative binomial, full dataset, vs placebo
[16] = negative binomial, reduced dataset, adjusted for stratification factors, vs placebo
[17] = negative binomial, reduced dataset, vs placebo
[18] = number of events, icosapent ethyl arm N = 4089, full dataset
[19] = number of events, after reduction
[20] = number of events, multiple endpoints in a single calendar day handled as a single event
[21] = share of overall events in the category, after reduction

With `CC/C=C\C/C=C\C/C=C\C/C=C\C/C=C\CCCC(=O)OCC` [Icosapent Ethyl, eicosapentaenoic acid ethyl ester] the “Average placebo-corrected reduction from baseline in diastolic blood pressure” value [1] was 0.5 mm Hg, the “Average placebo-corrected reduction from baseline in systolic blood pressure” value [1] was 1.3 mm Hg and the “Adjusted HR, key secondary composite endpoint” value [2, 3] was 0.71. The “Adjusted HR, primary composite endpoint” value [2, 3] was 0.68, the “Unadjusted HR, key secondary composite endpoint” value [2, 4] was 0.71 and the “Unadjusted HR, primary composite endpoint” value [2, 4] was 0.68. For the same compound, the “Adjusted HR, total key secondary composite endpoint events” value [2, 5] was 0.72, the “Adjusted HR, total primary composite endpoint events” value [2, 5] was 0.69 and the “Unadjusted HR, total key secondary composite endpoint events” value [2, 6] was 0.72. For the same compound, the “Unadjusted HR, total primary composite endpoint events” value [2, 6] was 0.69, the “Adjusted HR, key secondary composite endpoint” value [2, 7] was 0.71 and the “Adjusted HR, primary composite endpoint” value [2, 7] was 0.68. The “Unadjusted HR, key secondary composite endpoint” value [2, 8] was 0.71, the “Unadjusted HR, primary composite endpoint” value [2, 8] was 0.68 and the “Adjusted HR, total key secondary composite endpoint events” value [2, 9] was 0.72. For the same compound, the “Adjusted HR, total primary composite endpoint events” value [2, 9] was 0.69, the “Unadjusted HR, total key secondary composite endpoint events” value [2, 10] was 0.72 and the “Unadjusted HR, total primary composite endpoint events” value [2, 10] was 0.69. The “Cardiovascular deaths prevented per 1000 patients treated for five years” value ([2]; FIG. 38) was 12, the “Coronary revascularizations prevented per 1000 patients treated for five years” value ([2]; FIG. 38) was 76 and the “Episodes of hospitalization for unstable angina prevented per 1000 patients treated for five years” value ([2]; FIG. 38) was 16. The “Myocardial infarctions prevented per 1000 patients treated for five years” value ([2]; FIG. 38) was 42, the “Strokes prevented per 1000 patients treated for five years” value ([2]; FIG. 38) was 14 and the “First occurrence of primary composite endpoint: HR vs placebo” value [2, 11] was 0.75. For the same compound, the “Second occurrence of primary composite endpoint: HR vs placebo” value [2, 11] was 0.68, the “First events reduced by” value ([2]; in vivo) was 25% and the “Fourth or more events reduced by” value ([2]; in vivo) was 48%. The “Relative risk reduction in total (first and subsequent) ischemic events for the primary composite endpoint” value ([2]; in vivo) was 30%, the “Second events reduced by” value ([2]; in vivo) was 32% and the “Third events reduced by” value ([2]; in vivo) was 31%. For the same compound, the “Adjusted HR, key secondary composite endpoint, first event” value [2, 12] was 0.74, the “Adjusted HR, key secondary composite endpoint, second event” value [2, 12] was 0.75 and the “Adjusted HR, key secondary composite endpoint, third event” value [2, 12] was 0.79. The “Adjusted HR, primary composite endpoint, first event” value [2, 12] was 0.75, the “Adjusted HR, primary composite endpoint, second event” value [2, 12] was 0.68 and the “Adjusted HR, primary composite endpoint, third event” value [2, 12] was 0.70. The “Unadjusted HR, key secondary composite endpoint, first event” value [2, 13] was 0.74, the “Unadjusted HR, key secondary composite endpoint, second event” value [2, 13] was 0.75 and the “Unadjusted HR, key secondary composite endpoint, third event” value [2, 13] was 0.79. The “Unadjusted HR, primary composite endpoint, first event” value [2, 13] was 0.76, the “Unadjusted HR, primary composite endpoint, second event” value [2, 13] was 0.69 and the “Unadjusted HR, primary composite endpoint, third event” value [2, 13] was 0.70. For the same compound, the “Total key secondary endpoint events: rate ratio (RR) vs placebo” value ([2]; negative binomial model) was 0.72, the “Total primary endpoint events: rate ratio (RR) vs placebo” value ([2]; negative binomial model) was 0.70 and the “Adjusted RR, key secondary composite endpoint” value [2, 14] was 0.71. For the same compound, the “Adjusted RR, primary composite endpoint” value [2, 14] was 0.69, the “Unadjusted RR, key secondary composite endpoint” value [2, 15] was 0.71 and the “Unadjusted RR, primary composite endpoint” value [2, 15] was 0.67. For the same compound, the “Adjusted RR, total key secondary composite endpoint events” value [2, 16] was 0.72, the “Adjusted RR, total primary composite endpoint events” value [2, 16] was 0.70 and the “Unadjusted RR, total key secondary composite endpoint events” value [2, 17] was 0.71. For the same compound, the “Unadjusted RR, total primary composite endpoint events” value [2, 17] was 0.68, the “Total events before reduction, key secondary endpoint” value [2, 18] was 590 n and the “Total events before reduction, primary endpoint” value [2, 18] was 1185 n. The “Fatal events, key secondary endpoint” value [2, 19] was 174 n, the “Fatal events, primary endpoint” value [2, 19] was 174 n and the “Non-fatal events, key secondary endpoint” value [2, 19] was 384 n. For the same compound, the “Non-fatal events, primary endpoint” value [2, 19] was 902 n, the “Total events after reduction, key secondary endpoint” value [2, 20] was 558 n and the “Total events after reduction, primary endpoint” value [2, 20] was 1076 n. The “Fatal events, key secondary endpoint” value [2, 21] was 45.0%, the “Fatal events, primary endpoint” value [2, 21] was 45.0% and the “Total events after reduction, primary endpoint” value [2, 21] was 41.0%. The “Total events before reduction, key secondary endpoint” value ([2]; share of overall events in the category, icosapent ethyl arm N = 4089) was 42.0%.
